Measurements as given in US10011616B2, “Boron-containing small molecules as antiprotozoal1 agents” (MMV MEDICINES FOR MALARIA VENTURE, priority 2015, dated 2018).

Assays:
[1] = system: 3D7 strain of Plasmodium falciparum; assay: In vitro activity against 3D7 strain of Plasmodium falciparum ([3H]-hypoxanthine incorporation assay); assay type: cell-based; details: Erythrocyte, 48 h, P. falciparum 3D7 in human erythrocytes, 2 d, growth inhibition, read-out: IC50: 1 Org. Growth P. falciparum 3D7, 2 d (LPS_00570)
Procedure: In Vitro Activity Against Plasmodium falciparum a) Against 3D7 Strain of Plasmodium falciparum Inhibition of 3D7 strain parasites was assessed using the [^3H]-hypoxanthine incorporation assay (Desjardins, et al. Antimicrob. Agents Chemother. 1979, 16, 710-718). Briefly, parasites were cultured in human erythrocytes (from the Spanish Red Cross blood bank) using RPMI-1640 culture media (Gibco) supplemented with 0.5% Albumax II (Invitrogen), 2% D-sucrose (Sigma-Aldrich), 0.3% glutamine (Sigma-Aldrich), and 5 mM hypoxanthine (Sigma-Aldrich). Cultures were maintained at 37° C. at an atmosphere of 5% O2, 5% CO2, and […]. To assess inhibition, asynchronous parasite cultures with 0.5% parasitemia and 2% hematocrit were exposed to 3-fold serial dilutions of test compounds for 24 hours in 96 well plate cultures (Costar #3894). After 24 hours, [^3H]-hypoxanthine was added, plates were incubated for an additional 24 hours, and parasites were harvested on glass fiber filters (Wallac #1450-421) using a cell harvester 96 (TOMTEC, Perkin Elmer). Filters were dried on scintillator sheets (MeltiLex A, PerkinElmer #1450-441) to determine incorporation of [^3H]-hypoxanthine. Radioactivity was measured using a microbeta counter (Perkin Elmer). Data are normalized using the incorporation of the positive control (infected erythrocytes without drug). IC50 values were determined using Excel and Grafit 5 software. Values were determined from at least three independent experiments, and standard deviations were calculated.

[2] = system: W2 strain of Plasmodium falciparum; assay: In vitro activity against W2 strain of Plasmodium falciparum (YOYO-1 flow cytometry); assay type: cell-based; details: Erythrocyte, 48 h, P. falciparum W2 in human erythrocytes, 2 d, growth inhibition, read-out: IC50: 1 Org. Growth P. falciparum W2, 2 d (LPS_00451)
Procedure: In Vitro Activity Against Plasmodium falciparum
b) Against W2 Strain of Plasmodium falciparum
W2 strain P. falciparum parasites were cultured in human erythrocytes and RPMI-1640 culture media with either 10% human serum or 0.5% Albumax serum substitute under 3% O2, 5% CO2, and 92% N2. Parasites synchronized to ring stage by treatments with 5% D-sorbitol were cultured with serial dilutions of benzoxaboroles from 5 to 10 mM stocks in 96 well microplate cultures including 200 μL of media/well, 2% hematocrit, and 1% parasitemia. At the completion of 48 h incubations, when untreated cultures contained new rings, parasites were fixed with 2% formaldehyde for 48 h, and 5 μL aliquots were transferred to another 96 well plate containing 150 μL/well of staining solution (100 mM NH4Cl, 0.1% Triton X-100, and 1 nM YOYO-1 in PBS). Parasites per erythrocyte were then determined by flow cytometry from plots of forward scatter against fluorescence (excitation 488 nm, emission 520 nm) using a FacSort flow cytometer (Beckton Dickinson) equipped with an AMS Loader (Cytek Development). All values were normalized to percent control activity, and IC50s were calculated using the Prism 3.0 program (GRAPHPAD Software). Goodness of fit was assessed by R^2 values, and meaningful dose-response curves yielded R^2 values >0.95.

SMILES	IC50 [1] [nM]	IC50 [2] [nM]
Cc1c(Oc2cnc(C(=O)N[C@H](CO)CCC(F)(F)F)cn2)ccc2c1B(O)OC2 [Example 38, (S)-5-(1-hydroxy-7-methyl-1,3-dihydrobenzo[c][1,2]oxaborol-6-yloxy)-N-(5,5,5-trifluoro-1-hydroxypentan-2-yl)pyrazine-2-carboxamide]	959	352
Cc1c(Oc2cnc(C(=O)N3CC(O)(C(C)C)C3)cn2)ccc2c1B(O)OC2 [Example 57, (3-hydroxy-3-isopropylazetidin-1-yl) (5-((1-hydroxy-7-methyl-1,3-dihydrobenzo[c][1,2]oxaborol-6-yl)oxy)pyrazin-2-yl)methanone]	369	40.7
COC[C@H](CO)NC(=O)c1cnc(Oc2ccc3c(c2C)B(O)OC3)cn1 [Example 32, (S)—N-(1-hydroxy-3-methoxypropan-2-yl)-5-((1-hydroxy-7-methyl-1,3-dihydrobenzo[c][1,2]oxaborol-6-yl)oxy)pyrazine-2-carboxamide]	796	512
CCC(CO)NC(=O)c1cnc(Oc2ccc3c(c2C)B(O)OC3)cn1 (centres unmarked) [Example 18, 5-(1-hydroxy-7-methyl-1,3-dihydrobenzo[c][1,2]oxaborol-6-yloxy)-N-(1-hydroxybutan-2-yl)pyrazine-2-carboxamide]	725	622
Cc1c(Oc2cnc(C(=O)N(C)CCO)cn2)ccc2c1B(O)OC2 [Example 10, 5-(1-hydroxy-7-methyl-1,3-dihydrobenzo[c][1,2]oxaborol-6-yloxy)-N-(2-hydroxyethyl)-N-methylpyrazine-2-carboxamide]	437	262
CCC1(O)CN(C(=O)c2cnc(Oc3ccc4c(c3C)B(O)OC4)cn2)C1 [Example 54, (3-ethyl-3-hydroxyazetidin-1-yl)(5-((1-hydroxy-7-methyl-1,3-dihydrobenzo[c][1,2]oxaborol-6-yl)oxy)pyrazin-2-yl)methanone]	87	28.9
CC[C@@H](CO)NC(=O)c1cnc(Oc2ccc3c(c2C)B(O)OC3)cn1 [Example 21, (S)-5-(1-hydroxy-7-methyl-1,3-dihydrobenzo[c][1,2]oxaborol-6-yloxy)-N-(1-hydroxybutan-2-yl)pyrazine-2-carboxamide]	801	704
CSC[C@H](CO)NC(=O)c1cnc(Oc2ccc3c(c2C)B(O)OC3)cn1 [Example 35, (S)—N-(1-hydroxy-3-(methylthio)propan-2-yl)-5-((1-hydroxy-7-methyl-1,3-dihydrobenzo[c][1,2]oxaborol-6-yl)oxy)pyrazine-2-carboxamide]	73.7	370
Cc1c(Oc2cnc(C(=O)N(CCO)CCO)cn2)ccc2c1B(O)OC2 [Example 6, 5-(1-hydroxy-7-methyl-1,3-dihydrobenzo[c][1,2]oxaborol-6-yloxy)-N,N-bis(2-hydroxyethyl)pyrazine-2-carboxamide]	184	328
Cc1c(Oc2cnc(C(=O)NC(CO)c3ccccc3)cn2)ccc2c1B(O)OC2 (centres unmarked) [Example 16, N-(2-hydroxy-1-phenylethyl)-5-(1-hydroxy-7-methyl-1,3-dihydrobenzo[c][1,2]oxaborol-6-yloxy)pyrazine-2-carboxamide]	380	223
Cc1c(Oc2cnc(C(=O)N[C@H](C)CO)cn2)ccc2c1B(O)OC2 [Example 11]	848	944
CCC[C@@H](NC(=O)c1cnc(Oc2ccc3c(c2C)B(O)OC3)cn1)C(C)(C)O [Example 43, (R)—N-(2-hydroxy-2-methylhexan-3-yl)-5-((1-hydroxy-7-methyl-1,3-dihydrobenzo[c][1,2]oxaborol-6-yl)oxy)pyrazine-2-carboxamide]	553	260
C=C[C@@H](CO)NC(=O)c1cnc(Oc2ccc3c(c2C)B(O)OC3)cn1 [Example 29, (S)-5-(1-hydroxy-7-methyl-1,3-dihydrobenzo[c][1,2]oxaborol-6-yloxy)-N-(1-hydroxybut-3-en-2-yl)pyrazine-2-carboxamide]	764	828
